Experiments:
Type in all cases: in vivo, rat
[1] = test system: conscious Sprague-Dawley rats; experiment: Acute cardiovascular and renal excretory studies with ICV or IV norBNI pretreatment (Example 4)
Protocol: Male Sprague-Dawley rats (Envigo Labs, Indianapolis, IN) were individually housed, allowed tap water and standard rodent diet ad libitum, and kept under a 12-hour light-dark cycle. Rats used in these experiments weighed between 300 and 350 grams and were randomly assigned to experimental groups. All procedures were conducted in accordance with the National Institutes of Health guidelines for the care and use of animals and approved by the Louisiana State University Health Sciences Center Institutional Animal Care and Use Committee.
Aseptic technique was adhered to for all surgeries and detailed surgical methods were followed as previously described.^14 Briefly, 3-5 days before experimentation, rats requiring central ventricle access for administration of drug/vehicle into the brain were anesthetized with ketamine and xylazine and a stainless-steel cannula was stereotaxically implanted into the right lateral cerebral ventricle.^14
On the morning of the experiment, rats were anesthetized and maintained with inhaled 2% isoflurane, and polyethylene catheters were surgically placed into the left femoral artery, left femoral vein, and urinary bladder.^15.16 Following surgery, rats were placed in an elevated restrainer for recovery and collection of urine from an indwelling bladder catheter.^15 After completion of experimental protocols, rats were anesthetized with isoflurane and decapitated.
During stabilization of cardiovascular and renal excretory parameters, rats received an isotonic saline infusion (55 μl/min), which lasted throughout the duration of the experiment. To record mean arterial pressure (MAP) and heart rate (HR), arterial catheters were connected to a pressure transducer (MLT0670, ADInstruments, Sydney, Australia), which was connected to Powerlab 8/30 (ADInstruments) and visualized using LabChart software (v8.1.5; ADInstruments). After one hour of recovery from surgery, rats were pretreated with the KOR antagonist norBNI or isotonic saline vehicle through either an intracerebroventricular (ICV) catheter or intravenous (IV) catheter. […] Next, drug or vehicle (isotonic saline) was injected into the femoral vein and urine samples were collected every 10 minutes during a 90-minute experimental period. The following drug concentrations were used: nalfurafine 5 μg/kg, difelikefalin 10 μg/kg, norBNI 30 mg/kg (IV), norBNI 1 μg/5 μL (ICV). All groups are n=6. Urine sodium and potassium were measured using a flame photometer (model 943; Instrumentation Laboratories, Lexington, MA). Urine volume was measured gravimetrically, and urine osmolality was measured using a vapor pressure osmometer (model 5600; WESCOR, Logan, UT).
All results are expressed as mean±SEM. For determining statistically different changes at time points within a treatment group, means were compared to the control value using 2-way ANOVA with repeated measures and a post hoc Dunnett test following confirmation of a significant F value. For statistically different changes at individual time points between treatment groups, mean values were compared using 2-way ANOVA with repeated measures and a post hoc Sidak test following confirmation of a significant/value. For means between groups for total urine output, urine sodium concentration, urine potassium concentration, and urine osmolality, a Student/test was used. Statistical significance was characterized as P<0.05 and statistics were performed on Prism 7.05 software (GraphPad Software, Inc, San Diego, CA).

[2] = test system: conscious Sprague-Dawley rats; experiment: Acute cardiovascular and renal excretory studies, i.v. bolus (Example 3); details: for Effect on heart rate (HR) / Effect on MAP / Potassium concentration [K+] in cumulative urine / Sodium concentration [Na+] in cumulative urine / Urine osmolality / Total urine output: i.v. bolus; for Effect on heart rate (HR) / Effect on MAP: 90-min protocol; for Effect on MAP: diuretic alone; for Potassium concentration [K+] in cumulative urine / Sodium concentration [Na+] in cumulative urine / Urine osmolality: cumulative 90-min urine, same doses; for Potassium concentration [K+] in cumulative urine / Sodium concentration [Na+] in cumulative urine / Urine osmolality / Total urine output: mean±SEM; for Total urine output: cumulative urine of 90-min protocol, nalfurafine 5 μg kg−1, furosemide 7.5 mg kg−1, HCTZ 2.5 mg kg−1, amiloride 2 mg kg−1, n=6
Protocol: (§1) Animals: Male Sprague-Dawley (SD) rats (Envigo Labs, Indianapolis, IN), 300-350 g, were individually housed under a 12 h light-dark cycle and allowed tap water and standard rodent diet ad libitum. Rats were randomly assigned to experimental groups for all acute and subacute studies. All procedures were approved by the Louisiana State University Health Sciences Center Institutional Animal Care and Use Committee and conducted in accordance with the National Institutes of Health guidelines for the care and use of animals.
Surgical Procedures: Aseptic technique was followed for all surgical procedures. On the morning of the experiment, rats were anesthetized with and maintained under inhaled 2% isoflurane, and polyethylene catheters (PE50; BD Diagnostics, Sparks, MD) were surgically inserted into the left femoral vein and left femoral artery for the infusion of saline and/or drug administration and the recording of arterial blood pressure, respectively. Subsequently, a suprapubic incision was made and a flanged polyethylene catheter (PE240; BD Diagnostics, Sparks, MD) was inserted into the bladder, exteriorized, and sutured to surrounding muscle and skin. Rats were then placed in an elevated restrainer (Krowicki & Kapusta, 2011) to recover from surgery and allow collection of urine. When acute experimental protocols were completed, rats were anesthetized via isoflurane and decapitated.
Acute Cardiovascular and Renal Excretory Studies: Following surgery, rats received an i.v. infusion of isotonic saline at 55 μL min^−1 throughout the duration of the experiment and were allowed 4-6 hours to recover from anesthesia. Arterial catheters were connected to a pressure transducer (MLT0670, ADInstruments, Sydney, Australia), which was connected to Powerlab 8/30 (ADInstruments) for recording of pulsatile and mean arterial blood pressure (MAP) and heart rate (HR). Blood pressure and HR were visualized using LabChart software (v8.1.5; ADInstruments). […] Following this control period, drug or vehicle (isotonic saline) was injected into the femoral vein catheter at a volume of 2 cc kg^−1, and urines were collected in 10 minute periods for a span of 90 minutes. […] All groups are n=6. Urine volume was measured gravimetrically, urine sodium and potassium concentrations were measured using flame photometry (model 943; Instrumentation Laboratories, Lexington, MA), and urine osmolality was measured using a vapor pressure osmometer (model 5600; WESCOR, Logan, UT).
(§2) Experimental Design and Analysis: All results are expressed as mean±SEM. […] Means between groups for total urine output, Na^+ concentration, K^+ concentration, and urine osmolality were compared using a Student's t-test. Statistical significance was characterized as P<0.05. Statistics were carried out using Prism 7.05 software (GraphPad Software, Inc., San Diego, CA) and IBM SPSS Statistics (IBM, Armonk, NY).

[3] = test system: conscious Sprague-Dawley rats; experiment: Metabolic cage renal excretory studies, oral gavage (Example 3); details: oral gavage, mean±SEM; for Potassium concentration [K+] in cumulative urine / Sodium concentration [Na+] in cumulative urine: cumulative 5-hour urine, same doses; for Total urine output: cumulative urine of 5-hour protocol, nalfurafine 150 μg kg−1, furosemide 50 mg kg−1, HCTZ 5 mg kg−1, amiloride 5 mg kg−1, n=6
Protocol: as §1
Metabolic Cage Renal Excretory Studies: Rats were placed in metabolic cages (model 18cv, Fenco, Cataumet, MA) for 2 hours to allow for acclimation and voiding of residual urine. Following the acclimation period, rats were volume loaded with 20 cc kg^−1 drug or vehicle (isotonic saline) via oral gavage. Urines were collected each hour over a 5-hour period. Following completion of the study rats were returned to their home cages. […] These points are marked on the figures with number of measurements in parentheses.
as §2

Row | Structure (SMILES) | Effect of norBNI pretreatment on the diuresis ([1]; norBNI 1 μg/5 μL ICV before difelikefalin 10 μg/kg IV) | Effect of norBNI pretreatment on the diuresis ([1]; norBNI 1 μg/5 μL ICV before nalfurafine 5 μg/kg IV) | Effect of norBNI pretreatment on the diuresis ([1]; norBNI 30 mg/kg IV before difelikefalin 10 μg/kg IV) | Effect of norBNI pretreatment on the diuresis ([1]; norBNI 30 mg/kg IV before nalfurafine 5 μg/kg IV) | Duration of the increase in urine flow rate above control ([2]; after i.v. bolus) | Time of peak diuresis (urine flow rate) ([2]; after i.v. bolus) | Effect on heart rate (HR) [2] | Effect on MAP [2] | Potassium concentration [K+] in cumulative urine [2] | Sodium concentration [Na+] in cumulative urine [2] | Urine osmolality [2] | Total urine output [2] | Potassium concentration [K+] in cumulative urine [3] | Sodium concentration [Na+] in cumulative urine [3] | Total urine output [3]
1 | Oc1ccc2c3c1O[C@H]1c4[nH]c5c(c4C[C@@]4(O)[C@@H](C2)N(CC2CC2)CC[C@]314)C[C@@]1(O)[C@H]2Cc3ccc(O)c4c3[C@@]1(CCN2CC1CC1)[C@H]5O4 [norBNI, norbinaltorphimine] | significantly attenuated the peak increase and duration of the difelikefalin-induced diuresis | markedly attenuated | completely blocked the diuresis | nearly abolished | – | – | – | – | – | – | – | – | – | – | –
2 | N=C(N)NC(=O)c1nc(Cl)c(N)nc1N [amiloride] | – | – | – | – | 30 min | 10 min | Heart rate did not change | minimal effects on MAP | 0.85±0.19 μeq ml^−1 | 137.60±6.01 μeq ml^−1 | 398.3 ± 18.05 mmol/kg | 8.42 ± 0.40 mL | 4.02±0.54 μeq ml^−1 | 130.9±5.32 μeq ml^−1 | 8.61 ± 0.63 mL
3 | NS(=O)(=O)c1cc2c(cc1Cl)NCNS2(=O)=O [HCTZ, hydrochlorothiazide] | – | – | – | – | returned to baseline levels by 50-min | – | did not produce any changes in MAP or HR | did not produce any changes in MAP or HR | 14.76±3.12 μeq ml^−1 | 155.6±8.04 μeq ml^−1 | 439.3 ± 15.94 mmol/kg | 9.22 ± 0.50 mL | 26.50±1.91 μeq ml^−1 | 119.70±3.04 μeq ml^−1 | 14.55 ± 0.57 mL

From US20240180895A1, “USE OF KAPPA OPIOID RECEPTOR AGONISTS TO TREAT CARDIOVASCULAR DISEASE” (Board of Supervisors of Louisiana State University and …, priority 2021, published 2024)
